ChEMBL document CHEMBL5614421, “Structure-activity relationship study of Pseudellone C as anti-glioma agents by targeting TNF/TNFR signaling pathway” (Eur J Med Chem, 2024)
Active and inactive are the calls of the source. No cut-off for these calls is given here.

Key:
LN-229 [1] = assay: Induction of apoptosis in human LN-229 cells assessed as necrotic cells at 10 uM incubated for 24 hrs by Annexin V-APC/7-AAD staining based flow cytometric analysis (reference value: 0.56 %); assay type: functional
LN-229 [2] = assay: Induction of apoptosis in human LN-229 cells assessed as necrotic cells at 20 uM incubated for 24 hrs by Annexin V-APC/7-AAD staining based flow cytometric analysis (reference value: 0.56 %); assay type: functional
U-87 MG [3] = assay: Induction of apoptosis in human U-87 MG cells assessed as early apoptotic cells at 20 uM incubated for 48 hrs by Annexin V-APC/7-AAD staining based flow cytometric analysis (reference value: 0.94 %); assay type: functional, U-87MG ATCC
U-87 MG [4] = assay: Induction of apoptosis in human U-87 MG cells assessed as early apoptotic cells at 20 uM incubated for 24 hrs by Annexin V-APC/7-AAD staining based flow cytometric analysis (reference value: 1.59 %); assay type: functional, U-87MG ATCC
LN-229 [5] = assay: Induction of apoptosis in human LN-229 cells assessed as necrotic cells at 5 uM incubated for 24 hrs by Annexin V-APC/7-AAD staining based flow cytometric analysis (reference value: 0.56 %); assay type: functional
U-87 MG [6] = assay: Induction of apoptosis in human U-87 MG cells assessed as early apoptotic cells at 20 uM incubated for 24 hrs by Annexin V-APC/7-AAD staining based flow cytometric analysis (reference value: 0.94 %); assay type: functional, U-87MG ATCC
LN-229 [7] = assay: Induction of apoptosis in human LN-229 cells assessed as late apoptotic cells at 5 uM incubated for 24 hrs by Annexin V-APC/7-AAD staining based flow cytometric analysis (reference value: 3.56 %); assay type: functional
LN-229 [8] = assay: Induction of apoptosis in human LN-229 cells assessed as late apoptotic cells at 20 uM incubated for 12 hrs by Annexin V-APC/7-AAD staining based flow cytometric analysis (reference value: 5.1 %); assay type: functional
LN-229 [9] = assay: Induction of apoptosis in human LN-229 cells assessed as viable cells at 10 uM incubated for 24 hrs by Annexin V-APC/7-AAD staining based flow cytometric analysis (reference value: 95.4 %); assay type: functional; conditions: read-out: Activity
U-87 MG [10] = assay: Induction of apoptosis in human U-87 MG cells assessed as late apoptotic cells at 20 uM incubated for 24 hrs in presence of R7050 by Annexin V-APC/7-AAD staining based flow cytometric analysis (reference value: 7.7 %); assay type: functional, U-87MG ATCC
U-87 MG [11] = assay: Induction of apoptosis in human U-87 MG cells assessed as viable cells at 20 uM incubated for 12 hrs by Annexin V-APC/7-AAD staining based flow cytometric analysis (reference value: 94.6 %); assay type: functional, U-87MG ATCC; conditions: read-out: Activity
LN-229 [12] = assay: Induction of apoptosis in human LN-229 cells assessed as early apoptotic cells at 20 uM incubated for 24 hrs in presence of R7050 by Annexin V-APC/7-AAD staining based flow cytometric analysis (reference value: 0.91 %); assay type: functional
U-87 MG [13] = assay: Induction of apoptosis in human U-87 MG cells assessed as reduction in Bcl-2/Bax ratio at 5 to 20 uM incubated for 24 hrs by Western blot analysis; assay type: functional, cell-based; conditions: U-87MG ATCC, dose 5-20 µM
U-87 MG [14] = assay: Induction of apoptosis in human U-87 MG cells assessed as viable cells at 5 uM incubated for 24 hrs by Annexin V-APC/7-AAD staining based flow cytometric analysis (reference value: 94 %); assay type: functional, U-87MG ATCC; conditions: read-out: Activity
U-87 MG [15] = assay: Induction of apoptosis in human U-87 MG cells assessed as upregulation of TNF-alpha gene expression incubated for 24 hrs by transcriptome sequencing analysis; assay type: functional, cell-based; conditions: U-87MG ATCC
LN-229 [16] = assay: Induction of apoptosis in human LN-229 cells assessed as upregulation of cleaved caspase-3 expression incubated for 24 hrs by Western blot analysis; assay type: functional, cell-based
U-87 MG [17] = assay: Induction of apoptosis in human U-87 MG cells assessed as late apoptotic cells at 20 uM incubated for 12 hrs by Annexin V-APC/7-AAD staining based flow cytometric analysis (reference value: 3.44 %); assay type: functional, U-87MG ATCC
U-87 MG [18] = assay: Induction of apoptosis in human U-87 MG cells assessed as early apoptotic cells at 5 uM incubated for 24 hrs by Annexin V-APC/7-AAD staining based flow cytometric analysis (reference value: 1.59 %); assay type: functional, U-87MG ATCC

## CCCCCCCNC(=O)[C@H](Cc1c[nH]c2ccccc12)NC(=O)C(C)(c1c[nH]c2ccccc12)c1c[nH]c2ccccc12
LN-229 [1]
  Activity: 1.95%
LN-229 [2]
  Activity: 1.42%
U-87 MG [3]
  Activity: 5.06%
U-87 MG [4]
  Activity: 13.7%
LN-229 [5]
  Activity: 0.46%
U-87 MG [6]
  Activity: 2.6%
LN-229 [7]
  Activity: 3.7%
LN-229 [8]
  Activity: 4.06%
LN-229 [9]
  viability at 10 µM: 88.1%
U-87 MG [10]
  Activity: 2.87%
U-87 MG [11]
  viability at 20 µM: 93.8%
LN-229 [12]
  Activity: 1.48%
U-87 MG [13]
  Activity: Active
U-87 MG [14]
  viability at 5 µM: 92.9%
U-87 MG [15]
  Activity: Active
LN-229 [16]
  Activity: Dose-Dependent Effect
U-87 MG [17]
  Activity: 3.62%
U-87 MG [18]
  Activity: 2.06%
